# Results taken from patent US20070276034A1, “Compounds, compositions and methods for the treatment of synucleinopathies” (priority 2002, published 2007).
# Like-named read-outs stand apart in the source and are kept apart here.
# Columns and labels:
# [1] = target: T1, NAC fibrils (Homo sapiens, UniProt P37840); assay: Congo red binding assay with NAC fibrils; assay type: biochemical; settings: for % Inhibition NAC (result ± S.D.), Congo red binding: 3-day incubation
# T1 construct: NAC is a 35-amino acid fragment of α-synuclein; purchased Bachem Inc
# Experimental: In the Congo red binding assay, the ability of a given test compound to alter amyloid (in this case, NAC) binding to Congo red is quantified. In this assay, NAC and test compounds were incubated for 3 days and then vacuum filtered through a 0.2 μm filter. The amount of NAC retained in the filter was then quantitated following staining of the filter with Congo red. After appropriate washing of the filter, any lowering of the Congo red color on the filter in the presence of the test compound (compared to the Congo red staining of the amyloid protein in the absence of the test compound) was indicative of the test compound's ability to diminish/alter the amount of aggregated and congophilic NAC.
# In one study, the ability of NAC fibrils to bind Congo red in the absence or presence of increasing amounts of compounds #1, 3, 23, 26, 63, 66, 67, or EDTA (at NAC:test compound weight ratios of 1:1, 1:0.1, 1:0.01 or 1:0.001) was determined.
# [2] = target: T2, monomeric Aβ 1-42 (Homo sapiens, UniProt P05067); assay: SDS-PAGE/Western blot of Aβ 1-42 after incubation with compounds; assay type: biochemical; settings: 25 μM pre-fibrillized Aβ 1-42, 37° C., 3 days, 0.2 μm filtrate, antibody 6E10
# T2 construct: purchased Bachem Inc
# Experimental: In this latter study, triplicate samples of pre-fibrillized Aβ 1-42 (25 μM) was incubated at 37° C. for 3 days, alone or in the presence of the compounds or EDTA. Five micrograms of each sample was then filtered through a 0.2 μm filter. Protein recovered from the filtrate was then loaded, and ran on a 10-20% Tris-Tricine SDS-PAGE, blotted to nitrocellulose and detected using an Aβ-antibody (clone 6E10; Senetek).
# [3] = system: A53T α-synuclein-expressing BE-M17 cells; assay: XTT Cytotoxicity assay - protection against rotenone-induced cytotoxicity; assay type: cell-based
# Text: Therefore, to test the therapeutic potential of the compounds, two cell-based assays were utilized. In both assays, rotenone is used to induce mitochondrial oxidative stress and α-synuclein aggregation. The first assay utilizes the binding of the fluorescent dye thioflavin S to structures with high β-sheet content including α-synuclein fibrils. Therefore, quantitative assessment of the extent of thioflavin S-positive staining of fixed cells is used to test the ability of the compounds to decrease the amount of α-synuclein aggregates. In the second assay, cell viability is assessed using the XTT Cytotoxicity assay, which is dependent on intact, functional mitochondria in live cells. Thus, the XTT Cytotoxicity assay is used to test the ability of the compounds to ameliorate the mitochondrial toxicity and resulting loss of viability associated with the accumulation of α-synuclein aggregates. Phrased another way, the XTT Cytotoxicity assay is used to gauge the compounds neuroprotective efficacy. These studies are presented in the following examples.
# BE-M17 human neuroblastoma cells stably transfected with A53T-mutant human α-synuclein were obtained. Cell culture reagents were obtained from Gibco/Invitrogen, and cells were grown in OPTIMEM supplemented with 10% FBS, Penicillin (100 units/mil)-Streptomycin (100 μg/ml) and 500 μg/ml G418 as previously described (Ostrerova-Golts et al., J. Neurosci., 20:6048-6054, 2000).
# Research has shown that the accumulation of α-synuclein fibrils in Lewy bodies contributes mechanistically to the degradation of neurons in Parkinson's disease and related disorders (Polymeropoulos et al., Science 276:2045-2047, 1997; Kruger et al., Nature Genet. 18:106-108, 1998). Here, the XTT Cytotoxicity assay (hereafter referred to as the XTT assay) was used to measure the ability of test compounds to protect against rotenone-induced cytotoxicity (neuroprotective ability). The assay is based on the principle that conversion of the yellow tetrazolium salt XTT to form an orange formazan dye (that absorbs light around 490 nm) occurs only in metabolically active, viable cells. Therefore, light absorbance at 490 nm is proportional to cell viability. For this assay, cells were plated in 96 well tissue culture dishes at 10^4 cells per well. After 24 hours, cells were treated with 500 nM or 2 μM rotenone, or vehicle (0.05% DMSO) as indicated. Immediately after rotenone addition, compounds were added at the indicated concentration. […] Untreated cells received cell culture media only (no compound, with or without rotenone). After 40-44 hours of treatment, conditioned media was removed and replaced with 100 μl fresh media and 50 μl XTT labeling reaction mixture according to the manufacturer's recommendations. Four to five hours later, the absorbance at 490 nm was measured and corrected for absorbance at the 700 nm reference wavelength. […] Percent inhibition of cell death was calculated as the proportion of the rotenone-induced absorbance (viability) decrease that was eliminated by test compound treatment.
# [4] = target: T3, Wild-type α-synuclein (Homo sapiens, UniProt P37840); assay: Circular dichroism spectroscopy - conversion of α-synuclein to β-sheet-rich structure; assay type: biochemical; settings: for inhibition of conversion of α-synuclein to a β-sheet-rich structure (in words): 48 hours, 1 mg/ml compound (FIG. 13D)
# T3 construct: purchased rPeptide (Athens, Ga., USA)
# Experimental: For this purpose, α-synuclein was obtained from rPeptide (Athens, Ga., USA) as a lyophilized salt in 1 mg aliquots. Buffer components and other solvents were obtained from Sigma as A.C.S. Reagent grade or higher. Wild-type α-synuclein was dissolved in a buffer containing 9.5 mM phosphate and 139.7 mM potassium chloride, adjusted to pH 7.4. […] Aliquots of the solutions were taken at the appropriate time point for CD spectral analysis. CD spectra were acquired on a Jasco J-810 spectropolarimeter using a 0.1 cm path length cell. All spectra were recorded with a step size of 0.1 nm, a bandwidth of 1 nm, and an α-synuclein concentration of 0.1 mg/ml. The spectra were trimmed at the shortest wavelength which still provided a dynode voltage less than […]. The trimmed spectra were then subjected to a data processing routine beginning with noise reduction by Fourier transform followed by subtraction of a blank spectrum (compound or vehicle only without α-synuclein). These blank corrected spectra were then zeroed at 260 nm and the units converted from millidegrees to specific ellipticity. Percent β-sheet was determined from processed spectra by subtracting the ellipticity minimum value at approximately 218 nm from the maximum value observed at approximately 197 nm and referencing to a scale normalized to nearly fully folded and unfolded reference values, consistent with previous reports (Ramirez-Alvarado et al., J. Mol. […] Andersen et al., J. Am. Chem. […] These percent β-sheet values were then used to provide the respective relative % inhibition induced by the compounds.
# [5] = NAC:test compound wt/wt ratio 1:1
# [6] = 50 μg/ml compound, at both rotenone doses (500 nM or 2 μM)
# [7] = NAC:test compound wt/wt ratio 1:0.001
# [8] = NAC:test compound wt/wt ratio 1:0.01
# [9] = NAC:test compound wt/wt ratio 1:0.1
# [10] = 5 μg/ml compound, rotenone 500 nM or 2 μM
# T2 sequence (P05067 672-713): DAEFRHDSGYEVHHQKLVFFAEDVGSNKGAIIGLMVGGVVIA
structure (smiles),measurement,setting,value
"O=C(CCC(=O)NCc1ccc(O)c(O)c1)NCc1ccc(O)c(O)c1 [Compound 67, succinic acid bis(3,4-dihydroxybenzylamide)]","% Inhibition NAC (result ± S.D.), Congo red binding",[1]; [5],81.2 ± 2.87%
"O=C(Nc1ccc(O)c(O)c1)c1ccc(O)c(O)c1 [Compound 51, 3,4-dihydroxybenzoic acid 3,4-dihydroxyanilide]",detection of Aβ 1-42 monomers (~4 kilodalton band) on Western blot,[2],not detected
same,optimal therapeutic dose in XTT assay,[3]; 500 nM rotenone,~25 µg/mL
same,inhibition of rotenone-induced loss of viability,[3]; [6],25-30%
same,inhibition at 10 µg/mL,"[3]; Homo sapiens, 10 μg/ml compound, 500 nM rotenone, read-out: inhibition of rotenone-induced toxicity",45%
same,inhibition at 25 µg/mL,"[3]; Homo sapiens, 25 μg/ml compound, 500 nM rotenone, read-out: inhibition of rotenone-induced toxicity",55%
same,conversion of natively unfolded α-synuclein to a β-sheet-rich structure (in words),"[4]; 1 mg/ml α-synuclein, 1 mg/ml compound, 24 hours, 37°",prevents the conversion of natively unfolded α-synuclein to a β-sheet-rich structure
same,dose sufficient to completely eliminate the conversion of α-synuclein to a β-sheet-rich structure,"[4]; 1.0 mg/ml α-synuclein, 24 hours incubation at 37° C.",0.25 mg/mL
same,IC50,"[4]; 1.0 mg/ml α-synuclein, 24 hours incubation at 37° C., read-out: dose sufficient to inhibit the conversion of α-synuclein to a β-sheet-rich structure by approximately 50% (converted)",574 µM
same,inhibition of conversion of α-synuclein to a β-sheet-rich structure (in words),[4],completed inhibited conversion
same,β-sheet-rich structure of α-synuclein,"[4]; compound added 24 hours after the beginning (t=24 hr), up to 144 hours at 37° C.",≤ 45%
same,β-sheet-rich structure of α-synuclein,"[4]; compound added at the beginning (t=0 hr), sampled up to 144 hours",approximately 10%
"Oc1ccc(Cc2ccc(O)c(O)c2)cc1O [Compound 3, 3,4,3′,4′-tetrahydroxydiphenylmethane]","% Inhibition NAC (result ± S.D.), Congo red binding",[1]; [7],65.2 ± 5.40%
same,"% Inhibition NAC (result ± S.D.), Congo red binding",[1]; [8],81.7 ± 2.82%
same,"% Inhibition NAC (result ± S.D.), Congo red binding",[1]; [9],83.2±3.57%
same,"% Inhibition NAC (result ± S.D.), Congo red binding",[1]; [5],94.4±2.48%
"O=C(Nc1ccc(O)c(O)c1)C(=O)Nc1ccc(O)c(O)c1 [Compound 63, oxalic acid bis(3,4-dihydroxyanilide)]",inhibition of rotenone-induced loss of viability,[3]; [10],10-13%
same,inhibition at 50 µg/mL,"[3]; Homo sapiens, 50 μg/ml compound, 500 nM rotenone, read-out: inhibition of rotenone-induced toxicity",~55%
same,inhibition at 50 µg/mL,"[3]; Homo sapiens, 50 μg/ml compound, 2 μM rotenone, read-out: inhibition of rotenone-induced toxicity",~35%
same,inhibition of conversion of α-synuclein to a β-sheet-rich structure (in words),[4],modest inhibitory effects
"O=C(N[C@@H]1CCCC[C@H]1NC(=O)c1ccc(O)c(O)c1)c1ccc(O)c(O)c1 (relative stereo) [Compound 26, N,N′-bis(3,4-dihydroxybenzoyl)-trans-1,2-diaminocyclohexane]","% Inhibition NAC (result ± S.D.), Congo red binding",[1]; [9],36.7 ± 5.59%
same,"% Inhibition NAC (result ± S.D.), Congo red binding",[1]; [5],34.4 ± 10.19%
"O=C(O)CN(CCN(CC(=O)O)CC(=O)O)CC(=O)O [EDTA, reference compound]",detection of Aβ 1-42 monomers (~4 kilodalton band) on Western blot,[2],detected as a ˜4 kilodalton band
same,"% Inhibition NAC (result ± S.D.), Congo red binding",[1]; [7],0.0 ± 20.57%
same,"% Inhibition NAC (result ± S.D.), Congo red binding",[1]; [8],0.0 ± 22.0%
same,"% Inhibition NAC (result ± S.D.), Congo red binding",[1]; [9],0.0 ± 38.26%
same,"% Inhibition NAC (result ± S.D.), Congo red binding",[1]; [5],0.2 ± 7.33%
same,inhibition of NAC fibril binding to Congo red (in words),"[1]; all concentrations tested (ratios 1:1 to 1:0.001), 3 days",no significant inhibition
"O=C(NCc1ccc(O)c(O)c1)C(=Cc1ccc(O)c(O)c1)NC(=O)c1ccc(O)c(O)c1 [Compound 21, α-(3,4-dihydroxybenzamido)-3,4-dihydroxycinnamic acid 3,4-dihydroxybenzyl amide]",detection of Aβ 1-42 monomers (~4 kilodalton band) on Western blot,[2],not detected
same,inhibition of rotenone-induced loss of viability,[3]; [6],30-40%
"O=C(Nc1ccc(O)c(O)c1)Nc1ccc(O)c(O)c1 [Compound 76, 1,3-bis(3,4-dihydroxyphenyl)urea]",detection of Aβ 1-42 monomers (~4 kilodalton band) on Western blot,[2],not detected
same,inhibition of rotenone-induced loss of viability,[3]; [10],approximately 18%
same,inhibition of conversion of α-synuclein to a β-sheet-rich structure (in words),[4],completed inhibited conversion
"O=C(c1ccc(O)c(O)c1)C(O)c1ccc(O)c(O)c1 (stereo not drawn) [Compound 1, 3,4,3′,4′-tetrahydroxybenzoin]","% Inhibition NAC (result ± S.D.), Congo red binding",[1]; [9],75.9 ± 2.58%
same,"% Inhibition NAC (result ± S.D.), Congo red binding",[1]; [5],75.4 ± 2.96%
"O=C(c1ccc(O)c(O)c1)N1CCN(C(=O)c2ccc(O)c(O)c2)CC1 [Compound 23, 1,4-bis(3,4-dihydroxybenzoyl)piperazine]",inhibition of conversion of α-synuclein to a β-sheet-rich structure (in words),[4],modest inhibitory effects
